The numbers were not newly measured in US8980933B2, “Combretastatin analogs for use in the treatment of cancer” (Universitat Bayreuth, priority 2010, dated 2015), which cites them from elsewhere.

One data set deals with H12.1 xenograft. The conditions noted are these: H12.1 xenograft bearing mice; cited from earlier work.
Data set [1] deals with 1411HP germ cell tumor xenografts. The conditions noted are these: 1411HP xenografts; cited from earlier work.
The conditions of data set [2]: Bedford et al., Bioorg. Med. Chem. Lett. 1996; cited from earlier work.

Regarding `N.N.[Cl][Pt][Cl]` [cisplatin], the tumor response entry is reported as “complete regressions” in the data set on H12.1 xenograft and “only a transient growth inhibition followed by renewed tumor progress” in data set [1].

As to `COc1ccc(/C=C\c2cc(OC)c(OC)c(OC)c2)cc1OP(=O)(O)O` [combretastatin A-4-phosphate], the solubility in water entry in data set [2] is given as “about 5 mg/mL”.
